The experiment has as its target T1, ENPP1 (Homo sapiens, UniProt P22413).
T1 sequence (P22413 1-925): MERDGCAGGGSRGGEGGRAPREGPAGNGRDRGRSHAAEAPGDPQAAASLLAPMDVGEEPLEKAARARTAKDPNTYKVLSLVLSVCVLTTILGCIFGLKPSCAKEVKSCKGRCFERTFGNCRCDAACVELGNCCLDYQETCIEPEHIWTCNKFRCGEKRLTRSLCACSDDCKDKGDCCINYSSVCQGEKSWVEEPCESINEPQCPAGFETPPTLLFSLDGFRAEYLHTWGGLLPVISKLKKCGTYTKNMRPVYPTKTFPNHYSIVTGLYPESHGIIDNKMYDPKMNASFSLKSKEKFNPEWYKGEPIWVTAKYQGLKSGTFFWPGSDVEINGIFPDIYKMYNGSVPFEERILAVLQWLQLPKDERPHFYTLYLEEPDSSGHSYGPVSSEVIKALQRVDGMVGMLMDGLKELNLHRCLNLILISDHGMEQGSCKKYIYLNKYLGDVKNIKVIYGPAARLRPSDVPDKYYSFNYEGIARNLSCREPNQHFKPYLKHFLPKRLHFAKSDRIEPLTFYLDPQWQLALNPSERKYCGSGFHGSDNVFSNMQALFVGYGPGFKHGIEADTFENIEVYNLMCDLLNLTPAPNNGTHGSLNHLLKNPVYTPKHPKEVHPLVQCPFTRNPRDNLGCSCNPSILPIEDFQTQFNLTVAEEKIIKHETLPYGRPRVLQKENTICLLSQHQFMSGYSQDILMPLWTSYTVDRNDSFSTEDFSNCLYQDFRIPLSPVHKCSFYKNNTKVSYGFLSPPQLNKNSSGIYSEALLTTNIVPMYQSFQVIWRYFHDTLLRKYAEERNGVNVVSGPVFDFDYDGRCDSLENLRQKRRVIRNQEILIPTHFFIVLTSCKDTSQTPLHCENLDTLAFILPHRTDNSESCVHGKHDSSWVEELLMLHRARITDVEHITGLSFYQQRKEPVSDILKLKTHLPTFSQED
Briefly: Capillary electrophoresis-based NPP assay with ATP as a substrate (ENPP1 inhibition, Ki). It is filed as biochemical. The note with it: Ki from IC50 by Cheng-Prusoff, 400 μM ATP. Here is the method:
Here, a Capillary Electrophoresis based method was used to determine the IC50 values for ENPP1 Inhibitors for ENNP1 protein.
The inhibitors synthesized were assessed for ENPP1 inhibitory potency against the natural substrate ATP. The enzyme inhibition assays were performed in 10 mM 2-(N-cyclohexylamino)-ethanesulfonic acid (CHES) buffer (pH 10.0) including 1 mM MgCl2, 2 mM CaCl2), and 400 μM of ATP, with different inhibitor concentrations. The reaction mixture was incubated with 20 ng human NPP1 at 37° C. for 30 min in a final volume of 100 μL, and the reactions were stopped by heating at 90° C. for 3 min. Finally, the reaction mixtures were directly measured by capillary electrophoresis (CE). The CE instrumentation and operating conditions were as follows: P/ACE MDQ capillary electrophoresis system (Beckman Instruments, Fullerton, Calif., USA) with a DAD detection system, polyacrylamide-coated capillaries of 40 cm effective length×[…] (id) obtained from CS Chromatographie GmbH (Langerwehe, Germany), 50 mM phosphate buffer (pH 6.5) as running buffer, electrokinetic injection (−6 kV, 60 s), separation voltage of −15 kV. The amounts of AMP produced were measured at 260 nm. Data collection and peak area analysis were performed by 32 Karat software obtained from Beckman Coulter (Fullerton, Calif., USA).
The IC50 values of test compounds were calculated by plotting data in the program Prism 5.0, and the Ki values were calculated from the IC50 values with the Cheng-Prusoff equation (Tables 2-4).

Each structure is given as a SMILES string.

What is called Ki is a measure of affinity in units of concentration, obtained from inhibition or displacement. A high value points to lower affinity. In turn, `Nc1nc(SCC(=O)Nc2ccc3c(c2)OC(F)(F)O3)c2[nH]cnc2n1` [Compound 90] had a Ki (bin of Table 4) of at least 1 µM.
Under “bin of Table 2”, `CC(C)Oc1nc(NC(=O)C(C)(C)Sc2nc(N)nc3nc[nH]c23)ncc1Br` [Compound 543] yielded a Ki of at most 0.1 µM.
As for `COc1ccc(NC(=O)[C@@H](C)Sc2nc(N)nc3nc[nH]c23)nc1OC` [Compound 490], the inhibition constant Ki (bin of Table 2) was at most 0.1 µM.
`CC(C)(Sc1nc(N)nc2nc[nH]c12)C(=O)Nc1ccc(O)c(C(=O)O)c1` [Compound 251] displayed a Ki (bin of Table 4) of at least 1 µM.
Under “bin of Table 2”, `CC[C@@H](Sc1nc(N)nc2nc[nH]c12)C(=O)Nc1ncc(Br)c(OC)n1` [Compound 508] came in with a Ki of at most 0.1 µM.
Still for that read-out and setting: under `Nc1nc(SCC(=O)Nc2ccc(Cl)c(O)c2)c2[nH]cnc2n1` [Compound 207] stands at most 0.1 µM.
Still for that read-out and setting: under `Cc1nc2cc(NC(=O)CSc3nc(N)nc4nc[nH]c34)ccc2s1` [Compound 182] stands at most 0.1 µM; under `Nc1nc(S[C@@H](CCc2ccccc2)C(=O)Nc2ccc(O)c(C(=O)O)c2)c2[nH]cnc2n1` [Compound 485], at most 0.1 µM; under `COc1ccc(NC(=O)CSc2nc(N)nc3nc[nH]c23)nc1OC` [Compound 160], at most 0.1 µM.
Still for that read-out and setting: the same measure for `CC[C@@H](Sc1nc(N)nc2nc[nH]c12)C(=O)Nc1nccc(OC)n1` [Compound 389]: at most 0.1 µM; for `COc1ccc(NC(=O)CSc2nc(N)nc3nc[nH]c23)cc1Cl` [Compound 128]: at most 0.1 µM.
Consider `COc1ccc(NC(=O)Cn2cnc3ncnc(N)c32)cc1OC` [Compound 18], for which, for the setting “bin of Table 4”, the Ki is at least 1 µM.
As for `COc1nc(NC(=O)[C@H](Cc2ccccc2)Sc2nc(N)nc3nc[nH]c23)ncc1Br` [Compound 555], for the setting “bin of Table 2”, the Ki was at most 0.1 µM.
On the same count and under the same terms, under `Nc1nc(SCC(=O)Nc2ccc3ncccc3c2)c2[nH]cnc2n1` [Compound 184] stands at most 0.1 µM; under `COc1nc(NC(=O)[C@@H](Cc2ccccc2)Sc2nc(N)nc3nc[nH]c23)ncc1Cl` [Compound 551], at most 0.1 µM.
The same measure, in the same setting: the same measure for `COc1ccc(NC(=O)CSc2nc(N)nc3nc[nH]c23)cc1OC` [Compound 46, 2-((2-amino-7H-purin-6-yl)thio)-N-(3,4-dimethoxyphenyl)acetamide]: at most 0.1 µM; for `COc1nc(NC(=O)[C@H](Sc2nc(N)nc3nc[nH]c23)C(C)C)ncc1Br` [Compound 514]: at most 0.1 µM.
Consider `COc1ccnc(NC(=O)[C@H](Cc2ccccc2)Sc2nc(N)nc3nc[nH]c23)n1` [Compound 517], for which the Ki (bin of Table 2) was at most 0.1 µM.
Still for that read-out and setting: the same measure for `CC[C@@H](Sc1nc(N)nc2nc[nH]c12)C(=O)Nc1nc(Cl)cc(OC)n1` [Compound 496]: at most 0.1 µM; for `CC[C@H](Sc1nc(N)nc2nc[nH]c12)C(=O)Nc1ccc(OC)c(OC)n1` [Compound 472]: at most 0.1 µM.
Same read-out and setting: under `COc1ccnc(NC(=O)CSc2nc(N)nc3nc[nH]c23)n1` [Compound 201] stands at most 0.1 µM; under `CC[C@@H](Sc1nc(N)nc2nc[nH]c12)C(=O)Nc1cc(OC)ccn1` [Compound 471], at most 0.1 µM.
Take `COc1ccc(NC(=O)Cn2cnc3cnccc32)cc1OC` [Compound 11]: the Ki (bin of Table 4) is at least 1 µM.
`CCOc1nc(NC(=O)[C@H](CC)Sc2nc(N)nc3nc[nH]c23)ncc1Cl` [Compound 677] showed a Ki (bin of Table 2) of at most 0.1 µM.
Consider `COc1cc2ncc(Nc3cc(S(N)(=O)=O)ccc3C)nc2cc1OC` [Compound 8], for which the Ki (bin of Table 4) is at least 1 µM.
Consider `COc1ccc(NC(=O)CSc2nc3ccncc3o2)cc1OC` [Compound 22], for which the Ki (bin of Table 4) is at least 1 µM.
Consider `CCOc1nc(NC(=O)[C@@H](Sc2nc(N)nc3nc[nH]c23)C(C)C)ncc1F` [Compound 679], for which, where the note is “bin of Table 2”, the Ki was at most 0.1 µM.
Turning to `COc1ccc(NC(=O)CSc2ncnc3[nH]cnc23)cc1OC` [Compound 45], the Ki (bin of Table 4) is at least 1 µM.
In turn, `CCOc1nc(NC(=O)[C@H](CC)Sc2nc(N)nc3nc[nH]c23)ncc1F` [Compound 673] yielded a Ki (bin of Table 2) of at most 0.1 µM.
With `Nc1nc(SCC(=O)Nc2ccc3ncsc3c2)c2[nH]cnc2n1` [Compound 181], where the note is “bin of Table 2”, the Ki was at most 0.1 µM.
As to `CCC(Sc1nc(N)nc2nc[nH]c12)C(=O)Nc1ccc(O)c(C(=O)O)c1` (stereo not shown) [Compound 249], the Ki (bin of Table 2) was at most 0.1 µM.
On the same count and under the same terms, the same measure for `CC[C@H](Sc1nc(N)nc2nc[nH]c12)C(=O)Nc1nccc(OC)n1` [Compound 435]: at most 0.1 µM.
In the case of `COc1ccc(NC(=O)CSc2nc(N)nc3ncn(C)c23)cc1OC` [Compound 98], where the note is “bin of Table 4”, the Ki was at least 1 µM.
For the compound `Nc1nc(SCC(=O)NCc2ccccc2)c2[nH]cnc2n1` [Compound 103], the Ki (bin of Table 4) is at least 1 µM.
Same read-out and setting: the same measure for `COc1ccc(CNC(=O)CSc2nc(N)nc3nc[nH]c23)cc1OC` [Compound 105]: at least 1 µM.
For the compound `COc1ccnc(NC(=O)[C@H](C)Sc2nc(N)nc3nc[nH]c23)n1` [Compound 487], the Ki (bin of Table 2) was at most 0.1 µM.
In turn, `Nc1nc(SCC(=S)Nc2ccc(O)c(C(=O)O)c2)c2[nH]cnc2n1` [Compound 408] returned a Ki (bin of Table 2) of at most 0.1 µM.
Still for that read-out and setting: the same measure for `COc1nc(NC(=O)[C@@H](Sc2nc(N)nc3nc[nH]c23)C(C)C)ncc1Br` [Compound 515]: at most 0.1 µM; for `COc1ccnc(NC(=O)CSc2nc(N)nc3nc[nH]c23)c1` [Compound 109]: at most 0.1 µM.
Where the note is “bin of Table 4”, `COc1ccc(NC(=O)Cn2nnc3ncccc32)cc1OC` [Compound 35] had a Ki of at least 1 µM.
In the case of `CC[C@H](Sc1nc(N)nc2nc[nH]c12)C(=O)Nc1ncc(Br)c(OC)n1` [Compound 509], for the setting “bin of Table 2”, the Ki is at most 0.1 µM.
Still for that read-out and setting: the same measure for `COc1cc(NC(=O)[C@H](Sc2nc(N)nc3nc[nH]c23)c2ccccc2)ccc1O` [Compound 329]: at most 0.1 µM.
`COc1cc2ncc(SCC(=O)Nc3cc(S(N)(=O)=O)ccc3C)nc2cc1OC` [Compound 36] displayed a Ki (bin of Table 4) of at least 1 µM.
`COc1nc(NC(=O)[C@H](Cc2ccccc2)Sc2nc(N)nc3nc[nH]c23)ncc1Cl` [Compound 554]: under “bin of Table 2”, the Ki is at most 0.1 µM.
On the same count and under the same terms, the same measure for `CCOc1nc(NC(=O)[C@H](CC)Sc2nc(N)nc3nc[nH]c23)ncc1Br` [Compound 678]: at most 0.1 µM.
On the same count and under the same terms, the same measure for `CC[C@H](Sc1nc(N)nc2nc[nH]c12)C(=O)Nc1ncc(Cl)c(OC)n1` [Compound 609]: at most 0.1 µM.
`CC[C@H](Sc1nc(N)nc2nc[nH]c12)C(=O)Nc1ccc(O)c(C(=O)O)c1` [Compound 267] showed a Ki (bin of Table 2) of at most 0.1 µM.
Same read-out and setting: the same measure for `COc1nc(NC(=O)C(C)(C)Sc2nc(N)nc3nc[nH]c23)ncc1F` [Compound 529]: at most 0.1 µM; for `Nc1nc(SCC(=O)Nc2ccc3nccnc3c2)c2[nH]cnc2n1` [Compound 185]: at most 0.1 µM; for `COc1ccc(C(=O)NCCSc2nc(N)nc3nc[nH]c23)cc1OC` [Compound 148, N-(2-((2-amino-7H-purin-6-yl)thio)ethyl)-3,4-dimethoxybenzamide]: at most 0.1 µM.
In turn, `COc1cc(NC(=O)[C@@H](Sc2nc(N)nc3nc[nH]c23)C(C)C)ccc1O` [Compound 270] gave a Ki (bin of Table 2) of at most 0.1 µM.
On the same count and under the same terms, the same measure for `CCOc1nc(NC(=O)[C@@H](Sc2nc(N)nc3nc[nH]c23)C(C)C)ncc1Br` [Compound 681]: at most 0.1 µM.
`CC[C@@H](Sc1nc(N)nc2nc[nH]c12)C(=O)Nc1ncc(Cl)c(OC)n1` [Compound 608] had a Ki (bin of Table 2) of at most 0.1 µM.
Same read-out and setting: the same measure for `CC(C)[C@H](Sc1nc(N)nc2nc[nH]c12)C(=O)Nc1ccc(O)c(C(=O)O)c1` [Compound 269]: at most 0.1 µM; for `COc1ccnc(NC(=O)[C@@H](Sc2nc(N)nc3nc[nH]c23)C(C)C)n1` [Compound 510]: at most 0.1 µM; for `COc1ccnc(NC(=O)[C@@H](CCc2ccccc2)Sc2nc(N)nc3nc[nH]c23)n1` [Compound 507]: at most 0.1 µM.
`COc1nc(NC(=O)[C@@H](Cc2ccccc2)Sc2nc(N)nc3nc[nH]c23)ncc1Br` [Compound 552]: the Ki (bin of Table 2) is at most 0.1 µM.
`COc1nc(NC(=O)C2(Sc3nc(N)nc4nc[nH]c34)CCC2)ncc1Br` [Compound 558] returned a Ki (bin of Table 2) of at most 0.1 µM.

For the origin of these results see US20230002387A1, “2-AMINO-S6-SUBSTITUTED THIOPURINE COMPOUNDS AS INHIBITORS OF THE ENPP1 PROTEIN” (ATEN PORUS LIFESCIENCES PVT. LTD., priority 2019, published 2023).
